Earlier results on two compounds are cited in patent US20050239746A1, “Pharmaceutical composition” (priority 2002, published 2005).

Data set [1] concerns isolated guinea pig trachea. Conditions: 0.1M aqueous solution in 40% w/v 2-hydroxypropyl-beta-cyclodextrin.
For data set [2] the following is noted: intravenous infusion, 3 g single dose, 8 healthy volunteers.

For `CC(C)c1cccc(C(C)C)c1O` [Propofol, 2,6 di-isopropylphenol], in data set [1], the “muscle relaxant activity compared with the lipid emulsion” value is “three times higher”.

On to “2-hydroxypropyl-beta-cyclodextrin [Encapsin-HPB]”, for which the safety and tolerability result in data set [2] is “safe and well tolerated”.
